The values that follow come from paper PMC12362796, “Bilirubin Targeting WNK1 to Alleviate NLRP3‐Mediated Neuroinflammation” (Advanced Science, 2025).

One assay relates to FABP1. More on the design: method as in PMID 37390966, PMID 34067839. The settings on record: cited from earlier work.
A further assay deals with T1, hWNK4 (Homo sapiens, UniProt Q96J92).
T1 construct: expressed in transfected cells; host or cells: HEK293T
In words: MST, WNK kinase family member WNK4. The format is binding. The method, then: To validate the direct binding of bilirubin to WNK1, we performed a Microscale Thermophoresis (MST) analysis, which assesses the binding capacity of a compound by measuring the movement of proteins over a microscopic temperature gradient.^[ [26], [27] ^] We overexpressed full‐length WNK1 fused with Green Fluorescent Protein (GFP) in HEK‐293 cells, incubated the lysates with bilirubin at varying dilutions, and subjected them to precise MST measurements in capillaries. […] Furthermore, biliverdin, a structurally similar intermediate product generated before bilirubin formation, was used as a control.
All WNK1 clones were derived from the original untagged hWNK1 cDNA (NM_018979), which was modified and subcloned into the pcDNA3.1, referred to as “full‐length WNK1” throughout this study. Truncated constructs, including 1–190aa, 191–491aa, 1–491aa, and 491–2382aa fragments, were generated by PCR using the full‐length template and subsequently ligated into linearized pcDNA3.1 vectors. WNK2 was obtained from Addgene Plasmid #24569, and WNK3 was obtained from Addgene Plasmid #81723. Both were subjected to base modifications and cloned into pcDNA3.1. The WNK4 clone was derived from hWNK4 cDNA (NM_032387.5), modified, and subcloned into the pCMV3‐C‐GFPSpark vector.
In HEK293T cells, proteins tagged with green fluorescent protein (GFP) were expressed. […]

Another assay concerns the target MRGPRs. More on the design: method as in PMID 37390966, PMID 30657454. The settings on record: peripheral sensory neurons; cited from earlier work.
For the next assay, the system named is TRPM2 channels. More on the design: method as in PMID 36921602. The settings on record: activation of TRPM2 channels; cited from earlier work.
Assay [1] deals with primary cultured hippocampal neurons. Kind of assay: MQAE intracellular chloride measurement in primary cultured hippocampal neurons. The format is cell-based, mouse. The text has this: Therefore, we hypothesized that bilirubin activation of WNK1 kinase activity might affect intracellular chloride levels. […] This was detected using the sensitive molecular probe N‐(Ethoxycarbonylmethyl)‐6‐Methoxyquinolinium Bromide (MQAE), as indicated by a reduction in MQAE fluorescence intensity (Figure 4C,E).^[ [32] ^]
To ascertain whether bilirubin regulates chloride ions through WNK1, we generated Wnk1 gene knockout primary cultured neurons. We achieved neuron‐specific deletion of Wnk1 in hippocampal neurons by transducing primary neurons isolated from Wnk1^flox/flox embryonic mice with a lentivirus expressing hSyn‐Cre‐EGFP.^[ [33], [34] ^] […] Intracellular chloride concentration is crucial for modulating inhibitory synaptic transmission and, consequently, neuronal excitability.
Since bilirubin‐induced activation of WNK1 kinase activity increases [Cl⁻]i in neurons, we sought to elucidate the downstream effector proteins of WNK1 that are involved in this process. Neuronal [Cl⁻]i is primarily regulated by the Cl⁻‐K⁺ symporter KCC2, with additional modulation by factors such as the Na⁺‐K⁺‐Cl⁻ co‐transporter NKCC1, GABAA receptors, and glycine receptors (GlyR), all of which contribute to [Cl⁻]i homeostasis.^[ [31] ^] To investigate the mechanism underlying bilirubin‐induced changes in [Cl⁻]i, we selectively targeted these proteins using pharmacological inhibitors (VU0463271 for KCC2, bumetanide for NKCC1, bicuculline for GABAA receptors, and strychnine for GlyR) and activated KCC2 using CLP257.^[ [35], [36] ^] […] The bilirubin‐induced effect on [Cl⁻]i was not observed in primary astrocytes (Figure S15A,B, Supporting Information) or the HEK 293T cell line (Figure S15C, Supporting Information), both of which lacked KCC2 expression (Figure S16A,B, Supporting Information), further confirming that the effects of bilirubin and WNK1 on [Cl⁻]i elevation are dependent on KCC2.
Intracellular chloride concentration ([Cl⁻]i) was measured using the MQAE fluorescent dye (Life Technologies) following established protocols (Zhang, Lee et al. 2015). […]

T1 sequence (Q96J92 whole entry): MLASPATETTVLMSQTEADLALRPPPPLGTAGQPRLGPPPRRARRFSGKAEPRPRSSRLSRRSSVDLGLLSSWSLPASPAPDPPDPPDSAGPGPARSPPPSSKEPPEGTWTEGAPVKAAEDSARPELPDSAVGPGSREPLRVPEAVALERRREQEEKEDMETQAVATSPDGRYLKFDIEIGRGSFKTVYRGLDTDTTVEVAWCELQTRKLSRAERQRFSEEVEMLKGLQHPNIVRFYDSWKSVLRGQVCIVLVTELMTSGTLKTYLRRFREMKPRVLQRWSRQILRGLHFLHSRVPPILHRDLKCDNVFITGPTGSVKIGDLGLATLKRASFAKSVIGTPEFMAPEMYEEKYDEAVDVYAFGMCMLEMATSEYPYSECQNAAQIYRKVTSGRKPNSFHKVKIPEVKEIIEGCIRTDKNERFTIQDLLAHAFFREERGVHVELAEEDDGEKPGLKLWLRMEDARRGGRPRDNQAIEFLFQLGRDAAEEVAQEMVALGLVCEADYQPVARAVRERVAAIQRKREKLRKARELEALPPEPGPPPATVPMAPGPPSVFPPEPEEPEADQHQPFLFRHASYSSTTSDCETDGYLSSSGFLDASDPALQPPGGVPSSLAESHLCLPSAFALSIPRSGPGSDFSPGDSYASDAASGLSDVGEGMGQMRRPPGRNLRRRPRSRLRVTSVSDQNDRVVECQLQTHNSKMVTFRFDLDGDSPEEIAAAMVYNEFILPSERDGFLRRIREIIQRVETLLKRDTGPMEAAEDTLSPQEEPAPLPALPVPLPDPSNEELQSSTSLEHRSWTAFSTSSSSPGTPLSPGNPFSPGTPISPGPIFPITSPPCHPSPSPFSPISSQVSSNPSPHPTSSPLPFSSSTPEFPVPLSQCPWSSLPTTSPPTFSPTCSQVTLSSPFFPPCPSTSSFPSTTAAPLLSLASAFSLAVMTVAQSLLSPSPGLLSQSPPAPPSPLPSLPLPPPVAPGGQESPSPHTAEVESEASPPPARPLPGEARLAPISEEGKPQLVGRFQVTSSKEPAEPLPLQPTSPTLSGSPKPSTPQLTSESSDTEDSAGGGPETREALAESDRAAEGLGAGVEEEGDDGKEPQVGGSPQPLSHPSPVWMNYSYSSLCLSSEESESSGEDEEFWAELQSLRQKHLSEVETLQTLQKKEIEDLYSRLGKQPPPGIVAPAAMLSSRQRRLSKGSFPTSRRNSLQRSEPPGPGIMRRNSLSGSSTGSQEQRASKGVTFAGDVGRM

In the case of `C=CC1=C(C)/C(=C/c2[nH]c(Cc3[nH]c(/C=C4\NC(=O)C(C)=C4C=C)c(C)c3CCC(=O)O)c(CCC(=O)O)c2C)NC1=O` [bilirubin, Bilirubin], in the assay on FABP1, the “concentrations at which FABP1 binds bilirubin” value was 1 to 4 µM. For the same compound, the Kd at hWNK4 was 280 nM; on MRGPRs, 54400 to 92900 nM. For the same compound, in the assay on TRPM2 channels, the half-maximal effective concentration (EC50) is 1900 nM. Further, the “[Cl−]i levels after Wnk1 deletion” value in assay [1] (Wnk1 knockout primary neurons (hSyn-Cre lentivirus)) is “failed to increase”. Also, the intracellular chloride concentration entry in assay [1] (varying concentrations, 30 min, MQAE fluorescence) is on record as “significant increase”.
